Measurements reported in patent US9206164B2, “Pyrazole compounds as CRTH2 antagonists” (Boehringer Ingelheim International GmbH, priority 2011, dated 2015).

Molecular target: human CRTH2 receptor (Homo sapiens (Human), UniProt Q9Y5Y4)
Assay: CRTH2 receptor radioligand binding assay (SPA, [3H]-PGD2 displacement)
Conditions: antagonistic activities of selected compounds
Procedure: The binding of CRTH2 antagonists is determined using membranes prepared from Chinese hamster ovary cells (CHO-K1 cells) transfected with the human CRTH2 receptor (CHO-K1-hCRTH2 cells, Perkin Elmer, Cat No ES-561-C). To produce cell membranes the CHO-K1-hCRTH2 cells are cultured in suspension in CHO SFMII medium supplemented with 400 μg/ml G418. The cells are harvested by centrifugation at 300 g for 10 min at room temperature. The cell pellet is resuspended in Phosphate Buffer Saline (PBS) including a protease inhibitor mix (Complete, Roche) and adjusted to a concentration of 10E7 cells/ml. The CHO-K1-hCRTH2 cells are disrupted by nitrogen […] to obtain the membrane preparation. Cell debris is removed by centrifugation (500 g at 4° C., 30 min) and the supernatant is transferred into fresh tubes followed by a second centrifugation at 40000 g for 1 h at 4° C. to sediment the membranes. The membranes are suspended in SPA incubation buffer (50 mM Tris HCl, 10 mM MgCl2, 150 mM NaCl, 1 mM EDTA, pH 7.4) without bovine serum albumin, homogenized by passing through a single use needle (Terumo, 23G×1″), and stored in aliquots at −80° C.
The CRTH2 receptor binding assay is performed in a scintillation proximity assay (SPA) format with the radioligand [^3H]-PGD2 (Perkin Elmer, NET616000MC). CHO-K1-hCRTH2 cell membranes are again homogenized by passing through a single use needle (Terumo, 23G×1″) and diluted in SPA incubation buffer in suitable concentrations (0.5-10 μg protein/well). The SPA assay is set up in 96 well microtiter plates (Perkin Elmer, CatNo. 6005040) in SPA incubation buffer with a final volume of 200 μl per well and final concentration of 50 mM Tris-HCl, 10 mM MgCl2, 150 mM NaCl, 1 mM EDTA pH 7.4, 0.1% bovine serum albumin). The SPA assay mixture contains 60 μl of the membrane suspension, 80 μl of Wheat Germ Agglutinin coated PVT beads (GE Healthcare, RPNQ-0001, 0.3 mg/well), 40 μl of [^3H]-PGD2 diluted in SPA buffer to a final concentration of 1 nM (50 000 dpm) and 20 μl of the test compound (dissolved in dimethylsulfoxid). The SPA assay mixture is incubated for 3 h at room temperature. Bound radioactivity is determined with a scintillation counter (Micro Beta Trilux, Wallac).
The binding of [^3H]-PGD2 to CHO-K1-hCRTH2 cell membranes is determined in the absence (total binding, Bo) and presence (non-specific binding, NSB) of unlabelled PGD2 (1 μM, Cayman Chemical, Cat No 12010) or a reference CRTH2 antagonist (10 μM CAY10471, Cayman Chemical, Cat No 10006735).
Determination of the affinity of a test compound is calculated by subtraction of the non-specific binding (NSB) from the total binding (Bo) or the binding in the presence of the test compound (B) at a given compound concentration. The NSB value is set to 100% inhibition. The Bo−NSB value is set to 0% inhibition.
% inhibition values were obtained at a defined compound concentration, e.g. at 1 μM, % inhibition of the test compound was calculated by the formula 100−((B−NSB)*100/(Bo−NSB)). % inhibition values above 100% are founded by assay variance.

human CRTH2 receptor, sequence (Q9Y5Y4 whole entry): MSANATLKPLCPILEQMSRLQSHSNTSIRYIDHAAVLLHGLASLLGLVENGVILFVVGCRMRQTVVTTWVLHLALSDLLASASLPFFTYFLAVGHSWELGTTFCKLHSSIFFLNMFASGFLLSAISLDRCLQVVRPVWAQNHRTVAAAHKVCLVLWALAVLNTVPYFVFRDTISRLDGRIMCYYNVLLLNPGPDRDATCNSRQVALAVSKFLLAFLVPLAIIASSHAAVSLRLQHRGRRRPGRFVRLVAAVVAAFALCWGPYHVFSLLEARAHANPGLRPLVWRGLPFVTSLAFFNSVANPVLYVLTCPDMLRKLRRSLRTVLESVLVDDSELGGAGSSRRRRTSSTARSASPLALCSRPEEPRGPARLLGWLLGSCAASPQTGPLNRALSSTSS

Ki	Compound
1.7 nM	CCc1nn(Cc2ccc(-c3nc4c(F)cccc4[nH]3)cc2)c(CC)c1CC(=O)O [Compound 67]
0.2 nM	CCc1nn(Cc2ccc(-c3nc4cc(C(C)(C)C)ccc4[nH]3)cc2)c(CC)c1CC(=O)O [Compound 68]
61.2 nM	CCc1nn(Cc2ccc(-c3nc4cc(Cl)ccc4n3C)cc2)c(CC)c1CC(=O)O [Compound 69]
432 nM	Cc1nn(Cc2ccc(-c3nc4cncnc4[nH]3)cc2)c(C)c1CC(=O)O [Compound 70]
8.5 nM	Cc1nn(Cc2ccc(-c3nc4cc(F)ccc4[nH]3)cc2)c(C)c1CC(=O)O [Compound 71]
636 nM	Cc1nn(Cc2ccc(-c3nc4ccncc4[nH]3)cc2F)c(C)c1CC(=O)O [Compound 72]
2.5 nM	Cc1nn(Cc2ccc(-c3nc4c(Cl)cc(Cl)cc4[nH]3)cc2F)c(C)c1CC(=O)O [Compound 73]
1.2 nM	CCc1nn(Cc2ccc(-c3nc4c(F)cccc4[nH]3)cc2F)c(CC)c1CC(=O)O [Compound 74]
1 nM	CCc1nn(Cc2ccc(-c3nc4cc(OC)ccc4[nH]3)cc2F)c(CC)c1CC(=O)O [Compound 75]
0.6 nM	CCc1nn(Cc2ccc(-c3nc4cc(F)c(Cl)cc4[nH]3)cc2F)c(CC)c1CC(=O)O [Compound 76]
5.5 nM	Cc1nn(Cc2ccc(-c3nc4c(F)cc(F)cc4[nH]3)cc2F)c(C)c1CC(=O)O [Compound 77]
21.7 nM	Cc1nn(Cc2ccc(-c3nc4cc(C#N)ccc4[nH]3)cc2F)c(C)c1CC(=O)O [Compound 78]
1.3 nM	CCc1nn(Cc2ccc(-c3nc4nc(OC)ccc4[nH]3)cc2F)c(CC)c1CC(=O)O [Compound 79]
0.5 nM	CCc1nn(Cc2ccc(-c3nc4cc(Cl)ccc4[nH]3)cc2F)c(CC)c1CC(=O)O [Compound 80]
2.6 nM	CCc1nn(Cc2ccc(-c3nc4cc(C#N)ccc4[nH]3)cc2F)c(CC)c1CC(=O)O [Compound 81]
1 nM	CCc1nn(Cc2ccc(-c3nc4cc(F)ccc4[nH]3)cc2F)c(CC)c1CC(=O)O [Compound 82]
1.3 nM	CCc1nn(Cc2ccc(-c3nc4c(C)cccc4[nH]3)cc2F)c(CC)c1CC(=O)O [Compound 83]
0.8 nM	CCc1nn(Cc2ccc(-c3nc4c(F)c(F)ccc4[nH]3)cc2F)c(CC)c1CC(=O)O [Compound 84]
683 nM	Cc1nn(Cc2ccc(-c3nc4cncc(C)c4[nH]3)cc2F)c(C)c1CC(=O)O [Compound 85]
6.5 nM	Cc1nn(Cc2ccc(-c3nc4cc(F)ccc4[nH]3)cc2F)c(C)c1CC(=O)O [Compound 86]
0.4 nM	CCc1nn(Cc2ccc(-c3nc4cc(Br)ccc4[nH]3)cc2F)c(CC)c1CC(=O)O [Compound 87]
2.6 nM	CCc1nn(Cc2ccc(-c3nc4cc(Br)cnc4[nH]3)cc2F)c(CC)c1CC(=O)O [Compound 89]
60.9 nM	CCc1nn(Cc2ccc(-c3nc4ccncc4[nH]3)cc2F)c(CC)c1CC(=O)O [Compound 90]

Ki	Compound
3.7 nM	Cc1ccc2[nH]c(-c3ccc(Cn4nc(C)c(CC(=O)O)c4C)c(F)c3)nc2c1 [Compound 91]
0.7 nM	COc1ccc2[nH]c(-c3ccc(Cn4nc(C)c(CC(=O)O)c4C)c(F)c3)nc2n1 [Compound 92]
12.8 nM	Cc1nn(Cc2ccc(-c3nc4c(C)cccc4[nH]3)cc2F)c(C)c1CC(=O)O [Compound 93]
1.6 nM	Cc1nn(Cc2ccc(-c3nc4cc(Br)ccc4[nH]3)cc2F)c(C)c1CC(=O)O [Compound 94]
5.1 nM	CCc1nn(Cc2ccc(-c3nc4cc(Cl)cnc4[nH]3)cc2F)c(CC)c1CC(=O)O [Compound 95]
5.7 nM	COc1ccc2[nH]c(-c3ccc(Cn4nc(C)c(CC(=O)O)c4C)c(F)c3)nc2c1 [Compound 96]
0.9 nM	Cc1nn(Cc2ccc(-c3nc4cc(C(C)(C)C)ccc4[nH]3)cc2F)c(C)c1CC(=O)O [Compound 97]
0.1 nM	CCc1nn(Cc2ccc(-c3nc4cc(C(C)(C)C)ccc4[nH]3)cc2F)c(CC)c1CC(=O)O [Compound 98]
9.7 nM	Cc1nn(Cc2ccc(-c3nc4c(F)cccc4[nH]3)cc2F)c(C)c1CC(=O)O [Compound 99]
18.5 nM	Cc1nn(Cc2ccc(-c3nc4cc(Cl)cnc4[nH]3)cc2F)c(C)c1CC(=O)O [Compound 100]
1.1 nM	CCc1nn(Cc2ccc(-c3nc4c(F)cc(F)cc4[nH]3)cc2F)c(CC)c1CC(=O)O [Compound 101]
2.1 nM	Cc1nn(Cc2ccc(-c3nc4cc(F)c(Cl)cc4[nH]3)cc2F)c(C)c1CC(=O)O [Compound 102]
87.6 nM	CCc1nn(Cc2ccc(-c3nc4cncc(C)c4[nH]3)cc2F)c(CC)c1CC(=O)O [Compound 103]
0.7 nM	CCc1nn(Cc2ccc(-c3nc4c(Cl)cc(Cl)cc4[nH]3)cc2F)c(CC)c1CC(=O)O [Compound 104]
5.1 nM	Cc1nn(Cc2ccc(-c3nc4c(F)c(F)ccc4[nH]3)cc2F)c(C)c1CC(=O)O [Compound 105]
0.3 nM	CCc1nn(Cc2ccc(-c3nc4cc(C)c(Cl)cc4[nH]3)cc2F)c(CC)c1CC(=O)O [Compound 106]
87.4 nM	Cc1nn(Cc2ccc(-c3nc4cccnc4[nH]3)cc2F)c(C)c1CC(=O)O [Compound 107]
2.3 nM	Cc1nn(Cc2ccc(-c3nc4cc(Cl)ccc4[nH]3)cc2F)c(C)c1CC(=O)O [Compound 108]
1.8 nM	Cc1cc2nc(-c3ccc(Cn4nc(C)c(CC(=O)O)c4C)c(F)c3)[nH]c2cc1Cl [Compound 109]
287 nM	Cc1nn(Cc2cccc(-c3nc4cc(C(F)(F)F)ccc4[nH]3)c2)c(C)c1CC(=O)O [Compound 110]
2.5 nM	Cc1nn(Cc2ccc(-c3nc4cc(C(F)(F)F)ccc4[nH]3)cc2F)c(C)c1CC(=O)O [Compound 111]
16.2 nM	(3,5-Diethyl-1-[2-fluoro-4-(3H-imidazo[4,5-b]pyridin-2-yl)benzyl]-1H-pyrazol-4-yl)acetic Acid [Compound 13]
